Experimental data published in US4001207A, “Tertiary-aliphatic amidazo compounds” (priority 1971, dated 1977).

Columns and labels:
[1] = Temperature of nitrogen/gas evolution, thermal stability; conditions: for temperature at which it begins to evolve nitrogen: begins to evolve nitrogen (slowly); for temperature at which it evolves nitrogen: evolves nitrogen at / above
[2] = background statement; cited from earlier work
[3] = cited from earlier work
[4] = Gas produced per gram on thermal decomposition; assay type: physicochemical; conditions: 110° C.
Experimental: (§1) It produces 179 cc. of gas per gram at 110° C. The following half-life data have been determined:
(§2) To a rapidly stirred mixture of 39.0 g. (0.2 m.) 1 -tert.-butylhydrazo-1-cyanocyclohexane, 200 ml. methylene chloride and 100 ml. water was added 14.3 g. […] The reaction was stirred an additional 15 mins. after the addition was complete. The methylene chloride layer was separated, washed twice with 50 ml. portions of saturated NaHCO3 solution, dried over anhydrous sodium sulfate, filtered and the methylene chloride evaporated on a rotating evaporator to obtain 35.0 g. of liquid product that assayed 86.5% by an ultra violet spectrophotometric analysis. Distillation gave a product, b.p. 71° C./1.2 mm. of Hg that assayed 97.6% as 1-tert.-butylazo- 1-cyanocyclohexane. The infrared spectrum was in accord with this structure. […] It produces 146 cc. of gas per gram at 130° C.

[5] = Solubility in petroleum hydrocarbon and common organic solvents; assay type: physicochemical
[6] = Half-life of thermal decomposition; assay type: physicochemical
Experimental: as §1
as §2, with “130° C. The following half-life data have been determined:” for “130° C.”
The following half-life data have been determined by gas evolution technique using trichlorobenzene as the solvent: […]

[7] = Preliminary toxicological studies
Description: The new compositions of the present invention eliminate these problems. Most of the new compositions are liquids and are soluble in petroleum hydrocarbon and most of the other common organic solvents. Thus, no dusting, metering, incorporating, mixing, and dispersing problems are encountered in using these new compositions. […] The less toxic nature of the new compositions coupled with their liquid and high solubility properties allows them to be used in many applications where IXA cannot be used.

SMILES: CC(C)(C)NNC1(C#N)CCCCC1 [1-tert.-butylhydrazo-1-cyanocyclohexane]
- stability on exposure to air ([1]; over extended periods): evolves HCN on exposure to air over extended periods

SMILES: CC(C)(C#N)N=NC(C)(C)C#N [2,2'-azobisisobutyronitrile]
- toxicity [2]: toxic solid
- solubility in most of the organic common solvents ([3]; aromatic hydrocarbons, dioxane, alcohol, ether, carbon tetrachloride): very low or limited solubility
- solubility in petroleum hydrocarbon solvents [3]: insoluble

SMILES: CC(C)(C)N=NC(C)(C)C#N [Example I, Alpha-(tert.-butylazo) isobutyronitrile]
- gas produced [4]: 179 cc. of gas per gram
- solubility in petroleum solvents [5]: soluble in petroleum solvents
- t 1/2 ([6]; 78.8° C.): 10.0 h
- t 1/2 ([6]; 90° C.): 2.0 h
- t 1/2 ([6]; 100° C.): 0.54 h
- t 1/2 ([6]; 110° C.): 0.20 h
- toxicity relative to IXA and its decomposition residue [7]: significantly less toxic

SMILES: CC(C)CC(C#N)(CC(C)C)N=NC(C)(C)C [Example VII, 4-tert.-butylazo-4-cyano-2,6-dimethylheptane]
- temperature at which it begins to evolve nitrogen [1]: 70 °C

SMILES: CC(C)(C)N=NC(C)(C#N)CCC(=O)O (stereo not drawn) [Example X, alpha-tert.-butylazo-alpha-methyl-gamma-carboxybutyronitrile]
- half-life ([6]; 75° C.): 11.0 h
- half-life ([6]; 85° C.): 3.15 h
- temperature at which it begins to evolve nitrogen [1]: 85 °C

SMILES: CC(C)(C#N)N=NC(C)(C)c1ccccc1 [Example XI, Alpha-(tert.-cumylazo)isobutyronitrile]
- temperature at which it begins to evolve nitrogen [1]: 55 °C

SMILES: CC(C)(C)N=NC(C)(C#N)C1CC1 (stereo not drawn) [Example XII, Alpha-tert-butylazo-alpha-cyclopropylpropionitrile]
- temperature at which it begins to evolve nitrogen [1]: 75 °C

SMILES: CC(C)(C)N=NC(N)=O [Example XIII, tert.-butylazoformamide]
- t 1/2 ([6]; 120° C., gas evolution technique, trichlorobenzene): 3.00 h
- t 1/2 ([6]; 130° C., gas evolution technique, trichlorobenzene): 0.87 h
- t 1/2 ([6]; 150° C., gas evolution technique, trichlorobenzene): 0.14 h

SMILES: CC(C)(C)N=NC(=O)C(C)(C)C [Example XIX, Pivaloyl tert.-butyldiimide]
- temperature at which it evolves nitrogen [1]: 35 °C

SMILES: CC(C)(C)N=NC(=O)c1ccccc1 [Example XX, Benzoyl tert.-butyldiimide]
- temperature at which it evolves nitrogen [1]: 25 °C

SMILES: CC(C)(C)N=NC1(C#N)CCCCC1 [IV, 1-tert.-butylazo-1-cyanocyclohexane]
- toxicity relative to IXA and its decomposition residue [7]: significantly less toxic

SMILES: CC(C)(C)N=NC(C)(C#N)C(C)(C)C (stereo not drawn) [IX, 2-tert.-butylazo-2-cyano-3,3-dimethylbutane]
- temperature at which it begins to evolve nitrogen [1]: 95 °C

SMILES: CC(C)OC(=O)N=NC(C)(C)c1ccccc1 [Isopropyl tert.-cumylazocarboxylate]
- temperature at which it evolves nitrogen [1]: 80 °C

SMILES: CC(C)CC(C)(N=NC(C)(C)C)OOC(C)(CC(C)C)N=NC(C)(C)C (stereo not drawn) [LVIII, Di[1-(t-butylazo)-1,3-dimethylbutyl] Peroxide]
- thermal stability / gas evolution, in words [1]: began to gas rapidly upon reaching room temperature

SMILES: CC(C)CC(C)(N=NC(C)(C)C)OOC(C)(C)CCC(C)(C)OOC(C)(CC(C)C)N=NC(C)(C)C (stereo not drawn) [LXV, 2,2,5,8,8,11,11,14,17,17,decamethyl-5,14-diisobutyl-Δ^3,15-3,4,15,16-tetraaza-6,7,12,13-tetraoxaoctadecadiene]
- temperature at which it evolves nitrogen [1]: 30 °C

SMILES: CC1CC(C)(C)CC(C#N)(N=NC(C)(C)C)C1 (stereo not drawn) [VIII, 1-tert.-butylazo-1-cyano-3,3,5-trimethylcyclohexane]
- temperature at which it begins to evolve nitrogen [1]: 100 °C

SMILES: COC(=O)CNC(=O)N=NC(C)(C)C [XVI, tert.-butylazo-N-carbmethoxymethylformamide]
- temperature at which it begins to evolve nitrogen [1]: 140 °C

SMILES: CC(C)(C)N=NC(=O)NCC(=O)O [XVII, tert.-butylazo-N-carboxymethylformamide]
- temperature at which it begins to evolve nitrogen [1]: 60 °C

SMILES: CC(C)(C)N=NC1=CCCCC1 [XXIII, 1(-tert.-butylazo)cyclohexene]
- temperature at which it evolves nitrogen [1]: 60 °C

SMILES: CC(C)(C)N=NC1(C(N)=O)CCCCC1 [XXIV, 1-tert. butylazo-1-carbamylcyclohexane]
- temperature at which it evolves nitrogen [1]: above 120 °C

SMILES: CC(C)(C)N=NC(C)(C)C(N)=O [XXV, 2-t-butylazo-2-carbamylpropane]
- temperature at which it evolves nitrogen [1]: above 120 °C
